Where a name gives a salt, the structure may show the parent alone.

For the first assay, the target named is T1, CHK1 (kinase domain) (Homo sapiens, UniProt O14757).
T1 construct: a solution containing 1 nM of CHK1 (kinase domain)
T1 sequence (O14757 9-265 limits assumed): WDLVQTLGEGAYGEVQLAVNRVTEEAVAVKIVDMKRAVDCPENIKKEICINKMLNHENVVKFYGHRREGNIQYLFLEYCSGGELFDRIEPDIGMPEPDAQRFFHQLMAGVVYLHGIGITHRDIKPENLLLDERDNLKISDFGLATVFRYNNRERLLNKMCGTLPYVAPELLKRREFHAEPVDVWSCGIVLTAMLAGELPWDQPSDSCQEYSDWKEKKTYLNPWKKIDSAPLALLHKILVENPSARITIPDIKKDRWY
In words: CHK1 Ki determination, spectrophotometric coupled (pyruvate kinase/lactate dehydrogenase) assay. It is filed as biochemical. The settings on record: CHK-1 kinase domain; 150 uM ATP, 125 uM Syntide 2. Here is the method:
After 15 min pre-incubation, the enzymatic reaction was initiated by the simultaneous addition of Syntide 2 peptide (125 uM, final concentration) and ATP (150 uM, final concentration). The kinase-catalyzed production of ADP from ATP that accompanied phosphoryl transfer to the substrate Syntide 2 was coupled to the oxidation of NADH through the activities of pyruvate kinase and lactate dehydrogenase. NADH conversion to NAD^+ was monitored by the decrease in absorbance at 340 nm (ε=6.22 cm^−1 mM^−1) using a microplate reader from Molecular Devices Spectormax Plus (Sunnyvale, Calif.) or BMG LABTECH Inc (Offenburg, Germany).
The inhibition of CHK1 was analyzed by fitting the data to the following equation to determine Kiapp:
[formula] where [E]o and [I]o are the active enzyme and inhibitor concentration, respectively; Ki is the inhibition binding constant and Km the Michaelis-Menten constant for ATP; Vi and Vo are the rates of substrate oxidation in the presence of and in the absence of inhibitor, respectively. EC50 Determination (Cellular Assay)
Under the “Ki” column, data entries in the format of “%” are percent inhibition data where no Ki data is available. Data entry under the “EC50” column with an * are data obtained using Mia Paca-2 cells rather than HeLa cells. Data is not available where noted as n/a.
As a reminder, the Ki is the dissociation constant of the complex between target and ligand, obtained from inhibition or displacement. The low end stands for a stronger hold on the target, the high end for a looser hold on the target. `C[C@@H]1NCCC[C@H]1Nc1cncc(-c2cnc3ccc(F)cn23)n1` [Example 95, 6-(6-fluoroimidazo[1,2-a]pyridin-3-yl)-N-[(2S,3R)-2-methylpiperidin-3-yl]pyrazin-2-amine] yielded a Ki of 37.5 nM. In turn, `F[C@@H]1CNC[C@@H]1Nc1cncc(-c2cnn3ccccc23)n1` (relative stereo) [Example 45, Cis N-[4-fluoropyrrolidin-3-yl]-6-pyrazolo [1,5-a]pyridin-3-ylpyrazin-2-amine] registered an inhibitory constant (Ki) of 585 nM. On to `CCOc1cc2ncn(-c3cncc(N[C@H]4CNCC[C@@H]4OC)n3)c2cn1` [Example 298, [6-(6-Ethoxy-imidazo[4,5-c]pyridin-3-yl)-pyrazin-2-yl]-((3S,4S)-4-methoxy-piperidin-3-yl)-amine], for which affinity was put at a Ki of 5.27 nM. Compound `C[C@@H]1CC[C@@H](Nc2cncc(-c3cnc4cccnn34)n2)CN1` [Example 84, 6-imidazo[1,2-b]pyridazin-3-yl-N-[(3R,6R)-6-methylpiperidin-3-yl]pyrazin-2-amine, acetate salt] came in with a Ki of 1000 nM. This Ki lies about 190-fold higher than the previous one.

In turn, `C[C@H]1NCCC[C@H]1Nc1cncc(-c2cnc3ccc(F)cn23)n1` [Example 164, 6-(6-fluoroimidazo[1,2-a]pyridin-3-yl)-N-[(2R,3R)-2-methylpiperidin-3-yl]pyrazin-2-amine] returned an inhibition constant (Ki) of 18.4 nM. Regarding `c1cnn2c(-c3cncc(NC4CCCCNC4)n3)cnc2c1` (stereo not shown) [Example 80, N-(6-imidazo[1,2-b]pyridazin-3-ylpyrazin-2-yl)azepan-3-amine, acetate salt], the Ki turned out to be 1000 nM. For the compound `c1ccc2c(c1)ncn2-c1cncc(NC2CCNC2)n1` (stereo not shown) [Example 208, 6-(1H-benzimidazol-1-yl)-N-(pyrrolidin-3-yl)pyrazin-2-amine], the Ki was 195 nM. Against the preceding compound, the Ki is about 5.1-fold lower. `CCOc1cc2ncn(-c3cncc(N[C@H]4CN[C@H](COC)C4)n3)c2cn1` [Example 297, [6-(6-Ethoxy-imidazo[4,5-c]pyridin-3-yl)-pyrazin-2-yl]-((3R,5S)-5-methoxymethyl-pyrrolidin-3-yl)-amine] returned a Ki of 105 nM. In turn, `N#Cc1ccc2ncc(-c3cncc(N[C@H]4CNC[C@H]4C4CC4)n3)n2c1` [Example 263, 3-(6-{[(3R,4R)-4-cyclopropylpyrrolidin-3-yl]amino}pyrazin-2-yl)imidazo[1,2-a]pyridine-6-carbonitrile] yielded a Ki of 374 nM. As for `Cc1cn2c(-c3cncc(N[C@@H]4CCCN[C@H]4C)n3)cnc2s1` [Example 133, 6-(2-methylimidazo[2,1-b][1,3]thiazol-5-yl)-N-[(2S,3R)-2-methylpiperidin-3-yl]pyrazin-2-amine], the Ki turned out to be 21.4 nM. Take `F[C@@H]1CNC[C@@H]1Nc1cncc(-c2cnc3cccnn23)n1` [Example 81, N-[(3S,4R)-4-fluoropyrrolidin-3-yl]-6-imidazo[1,2-b]pyridazin-3-ylpyrazin-2-amine, acetate salt]: affinity was put at a Ki of 1000 nM. `C[C@H]1CC[C@@H](Nc2cncc(-c3cnc4cccnn34)n2)CN1` [Example 83, 6-imidazo[1,2-b]pyridazin-3-yl-N-[(3R,6S)-6-methylpiperidin-3-yl]pyrazin-2-amine, acetate salt] yielded an inhibitory constant (Ki) of 1000 nM. That is a single-digit micromolar value.

Turning to `c1cc2c(-c3cncc(N[C@@H]4CCCNC4)n3)cnn2cn1` [Example 299, (R)-Piperidin-3-yl-(6-pyrazolo[1,5-c]pyrimidin-3-yl-pyrazin-2-yl)-amine], the inhibition constant (Ki) turned out to be 4.11 nM. `COc1ccn2c(-c3cncc(N[C@H]4CNC[C@H]4C4CCCC4)n3)cnc2c1` [Example 210, N-[(3R,4R)-4-cyclopentylpyrrolidin-3-yl]-6-(7-methoxyimidazo[1,2-a]pyridin-3-yl)pyrazin-2-amine] gave an inhibitory constant (Ki) of 2.85 nM. The Ki values of the last two compounds are within 1.5-fold of each other. The same measure, in the same setting: under `F[C@@H]1CNC[C@H]1Nc1cncc(-c2cnc3cccnn23)n1` [Example 82, N-[(3R,4R)-4-fluoropyrrolidin-3-yl]-6-imidazo[1,2-b]pyridazin-3-ylpyrazin-2-amine] stands 1000 nM.

The assay is the same for the next values; noted with them: CHK-1 kinase domain; inhibitor concentration not given.
Regarding `Cc1ncc(-c2cncc(NC3CCCCNC3)n2)n1C` (stereo not shown) [Example 69, N-[6-(1,2-dimethyl-1H-imidazol-5-yl)pyrazin-2-yl]azepan-3-amine], the “percent inhibition (where no Ki data is available)” value stood at 0.60%^.

For the compound `Cc1ncc(-c2cncc(N[C@H]3CNC[C@@H]3F)n2)n1C` [Example 77, 6-(1,2-dimethyl-1H-imidazol-5-yl)-N-[(3S,4S)-4-fluoropyrrolidin-3-yl]pyrazin-2-amine], the “percent inhibition (where no Ki data is available)” value is recorded as 0%. Take `Cc1cccn2c(-c3cncc(N[C@@H]4CCCNC4)n3)cnc12` [Example 207, 6-(8-methylimidazo[1,2-a]pyridin-3-yl)-N-[(3R)-piperidin-3-yl]pyrazin-2-amine]: the “percent inhibition (where no Ki data is available)” value stood at 21%.

`Cc1cccc2ncc(-c3cncc(N[C@@H]4CCNC4)n3)n12` [Example 58, 6-(5-Methylimidazo[1,2-a]pyridin-3-yl)-N-[(3R)-pyrrolidin-3-yl]pyrazin-2-amine]: the “percent inhibition (where no Ki data is available)” value is reported as 0%. Same read-out and setting: under `c1ccn2c(-c3cncc(N[C@@H]4CCCNC4)n3)nnc2c1` [Example 8, N-[(3R)-piperidin-3-yl]-6-[1,2,4]triazolo[4,3-a]pyridin-3-ylpyrazin-2-amine] stands 16.7%^; under `Cc1nc2ccccn2c1-c1cncc(N[C@@H]2CCCNC2)n1` [Example 153, 6-(2-methylimidazo[1,2-a]pyridin-3-yl)-N-[(3R)-piperidin-3-yl]pyrazin-2-amine], 2.2%^. The same measure, in the same setting: next, `Cc1ncc(-c2cncc(N[C@@H]3CC[C@@H](C)NC3)n2)n1C` [Example 71, 6-(1,2-dimethyl-1H-imidazol-5-yl)-N-[(3R,6R)-6-methylpiperidin-3-yl]pyrazin-2-amine]: 0%; `FC[C@@H]1CNC[C@@H]1Nc1cncc(-c2cnc3sccn23)n1` [Example 182, N-[(3R,4R)-4-(fluoromethyl)pyrrolidin-3-yl]-6-(imidazo[2,1-b][1,3]thiazol-5-yl)pyrazin-2-amine]: 98.9%^; `Cc1cn2c(-c3cncc(N[C@H]4CCCN[C@@H]4C)n3)cnc2s1` [Example 177, 6-(2-methylimidazo[2,1-b][1,3]thiazol-5-yl)-N-[(2R,3S)-2-methylpiperidin-3-yl]pyrazin-2-amine]: 49.1%^. As to `Cc1ncc(-c2cncc(N[C@@H]3CC[C@H](C)NC3)n2)n1C` [Example 70, 6-(1,2-dimethyl-1H-imidazol-5-yl)-N-[(3R,6S)-6-methylpiperidin-3-yl]pyrazin-2-amine], the “percent inhibition (where no Ki data is available)” value worked out at 0%.

For `Cc1ncc(-c2cncc(N[C@@H]3CCNC3)n2)n1Cc1ccccc1` [Example 75, 6-(1-benzyl-2-methyl-1H-imidazol-5-yl)-N-[(3R)-pyrrolidin-3-yl]pyrazin-2-amine], the “percent inhibition (where no Ki data is available)” value is 6.7%^.

For the compound `Cc1ncc(-c2cncc(NC3CCCCNC3)n2)n1Cc1ccccc1` (stereo not shown) [Example 74, N-[6-(1-benzyl-2-methyl-1H-imidazol-5-yl)pyrazin-2-yl]azepan-3-amine], the “percent inhibition (where no Ki data is available)” value stood at 5.8%^. With `Cc1ncc(-c2cncc(N[C@@H]3CNC[C@@H]3F)n2)n1C` [Example 76, 6-(1,2-dimethyl-1H-imidazol-5-yl)-N-[(3R,4S)-4-fluoropyrrolidin-3-yl]pyrazin-2-amine], the “percent inhibition (where no Ki data is available)” value was found to be 1.6%^. For the compound `c1ccc2c(c1)ncn2-c1cncc(N[C@H]2CCCNC2)n1` [Example 63, 6-(1H-benzimidazol-1-yl)-N-[(3S)-piperidin-3-yl]pyrazin-2-amine], the “percent inhibition (where no Ki data is available)” value was 35.5%^.

For the compound `Cc1ncc(-c2cncc(N[C@@H]3CCCNC3)n2)n1Cc1ccccc1` [Example 72, 6-(1-benzyl-2-methyl-1H-imidazol-5-yl)-N-[(3R)-piperidin-3-yl]pyrazin-2-amine], the “percent inhibition (where no Ki data is available)” value turned out to be 1.4%^. With `c1cc2ncn(-c3cncc(N[C@@H]4CCNC4)n3)c2cc1OCC1CC1` [Example 220, 6-[6-(cyclopropylmethoxy)-1H-benzimidazol-1-yl]-N-[(3R)-pyrrolidin-3-yl]pyrazin-2-amine], the “percent inhibition (where no Ki data is available)” value is recorded as 17.9%^.

For the compound `C[C@@H]1NCCC[C@H]1Nc1cncc(-c2cnc3ccccn23)n1` [Example 131, 6-imidazo[1,2-a]pyridin-3-yl-N-[(2S,3R)-2-methylpiperidin-3-yl]pyrazin-2-amine], the “percent inhibition (where no Ki data is available)” value was determined as 0%. On the same count and under the same terms, under `Cc1ncc(-c2cncc(N[C@@H]3CCNC3)n2)n1C` [Example 73, 6-(1,2-dimethyl-1H-imidazol-5-yl)-N-[(3R)-pyrrolidin-3-yl]pyrazin-2-amine] stands 0%. For `Cc1ncc(-c2cncc(N[C@@H]3CC[C@@H](C)NC3)n2)n1Cc1ccccc1` [Example 68, 6-(1-benzyl-2-methyl-1H-imidazol-5-yl)-N-[(3R,6R)-6-methylpiperidin-3-yl]pyrazin-2-amine], the “percent inhibition (where no Ki data is available)” value amounted to 0%.
